In a melting point compilation (Tetko et al.; mined from patent text by program, amines drawn as free bases though some values may be those of a salt) one finds melting point data, which are given here for 87 compounds.

Molecules are shown by their SMILES.

Turning to `CC(C)(C)OC(=O)NCCCCC(=O)Nc1ccc(OCc2ccccc2)c(C(=O)NCCC(=O)OCc2ccccc2)c1`, the melting point lay within 97 to 99 °C.
To `Cc1cc(Oc2c(Cl)cc(C(F)(F)F)cc2Cl)nn1C(=O)NCc1ccccc1` belongs 50 to 53 °C.
To `CC(C)(CCC(F)(F)C(F)(F)C(F)(F)C(F)(F)C(F)(F)C(F)(F)C(F)(F)C(F)(F)F)OC(=O)N1CCC(C(=O)O)CC1` belongs 140 to 142 °C.
To `O=S(=O)(c1ccc(Cl)cc1)C(c1cc(F)ccc1F)C1CCCCC1` (configuration not stated) belongs 107 to 109 °C.
Consider `COc1cc2c(cc1NN)oc1ccccc12`, for which the melting point fell in the range of 113 to 115 °C.
To `Cc1cc2cc(CN3CCC(CCC(=O)N4CCCCC4)CC3)cnc2cc1NC(=O)c1ccc(-c2ccc(F)cc2)cc1` belongs 189 to 191 °C; to `Cc1ccc2c(c1)c(=O)oc(=O)n2C`, 153 °C; to `O=C(O)c1ccc2c(c1)CN(C(=O)OCc1ccccc1)C2`, 197 to 199 °C.
To `CCNC(=S)N(C)c1cn(-c2cccnc2)nc1Cl` belongs 160 to 162 °C; to `COC(=O)NNC(=O)Nc1cccc2c1C(=O)c1c-2n[nH]c1-c1ccc(OC)cc1`, greater than 300 °C.
In turn, `Cc1cn(C2(C(=O)N(C)C)CCCC2)nc1-c1ccccc1` gave a melting point of 99 to 101 °C.
The compound `CN(Cc1cccc(-c2ccc(CC3SC(=O)NC3=O)cc2)c1)C(=O)c1ccc(-c2ccc(O)cc2)cc1` (configuration not stated) returned a melting point of 211 to 213 °C.
To `CCCc1cc2ccc(CC(=O)O)cc2[nH]1` belongs 85 to 87 °C.
For `C=CCONC(=O)c1nc(-c2ccc(Cl)c(OC)c2F)c(F)c(N)c1Cl`, the melting point is 184 to 186 °C.
To `CC(C)Oc1c(-c2ccc(S(C)(=O)=O)cc2)cnn(-c2cc(F)ccc2F)c1=O` belongs 161 to 164 °C; to `CCCCCC1=CCC(c2cc(F)c(C(=O)O)c(F)c2)C=C1` (configuration not stated), 65 °C; to `CCOC(C)O[C@H]1C(=O)N(C(=O)OC(C)(C)C)[C@H]1C=Cc1ccccc1` (some centres not stated), 69 to 73 °C.
As to `C=C1c2ccccc2CCc2ccccc21`, the melting point was determined as 65.1 °C.
To `O=C1C=C(c2ccc(O)cc2)C(=O)N1` belongs 158 to 162 °C; to `CCC(C)c1ccc(-n2c(-c3cc(C)c(OCCO)c(C)c3)nc3ccc(F)cc3c2=O)cc1` (configuration not stated), 70 to 72 °C.
To `Cc1ccc(C(=O)c2[nH]c3ccc(Cl)cc3c2CC(=O)O)nc1` belongs 247 to 248 °C.
`O=C1Nc2ccc(I)cc2C1=NNC(=O)C1CCN(Cc2cccnc2)CC1` showed a melting point of 125 °C.
To `CC(C)(OCc1cc2cc(C(F)(F)F)ccc2n1S(=O)(=O)c1ccc2c(c1)OCCO2)C(=O)O` belongs 75 °C; to `CCOC(=O)C1=C(N)N=C(N)C(C)(C(=O)OCC)C1c1cccc([N+](=O)[O-])c1` (configuration not stated), 142 °C.
To `Nc1cc(OC2CCNCC2)c(F)c2c1c(=O)c(C(=O)O)cn2C1CC1` belongs greater than 300 °C.
To `NC(=S)N1CCN(c2ccc(SC(CCc3ccc(Cl)cc3)Cn3ccnc3)cc2)CC1` (configuration not stated) belongs 130 to 133 °C; to `COC(=O)c1ccc2cc(O)ccc2c1`, 196 °C; to `CCn1cc(C(=O)O)c(=O)c2cc(F)c(N3CCN(C(C)=O)CC3)cc21`, 300 °C.
As to `C[Si]1(CC(CN)CC(=O)O)CCCC1` (configuration not stated), the melting point fell in the range of 133 to 135 °C.
To `O=S(=O)(Cc1ccccc1)c1ccc(Cl)cc1` belongs 148 °C.
To `O=C(NCCO)c1cccc(-c2ccc3c(c2)N(Cc2cccc(Cl)c2Cl)CC3)c1` belongs 158 to 159 °C.
To `NCc1nnc2n1-c1ccc(Cl)cc1C(c1ccccc1)=NC2` belongs 168 to 172 °C; to `CCc1nc2c(N)nc(C)c(C)c2n1CCOCCN1CCCS1(=O)=O`, 157 to 159 °C; to `COc1cc(OC)c2c(=O)c3ccccc3oc2c1`, 170 to 171 °C.
`Cc1cc(C)nc(-n2ncnc2N)n1` registered a melting point of 230 to 232 °C.
To `CCC1CCSc2ccc(Nc3ncc(Cl)c(Nc4ccccc4C(=O)NC)n3)nc2C1` (configuration not stated) belongs 228 to 231 °C; to `COc1ccc2c(c1OCc1ccc(C(=O)O)cc1)CC(C(=O)O)N(C(=O)C(c1ccccc1)c1ccccc1)C2` (racemic), 190 to 192 °C.
The compound `CCCCCc1c(C(O)CC)nc(C(C)C)c(CO)c1-c1ccc(F)cc1` (configuration not stated) had a melting point of 89 to 90 °C.
Turning to `CCn1cc(N(C)S(=O)(=O)c2cccs2)c2[nH]c(C3=NCCS3)cc21`, the melting point turned out to be 163 °C.
To `CC(C)S(=O)(=O)c1cccc(OS(C)(=O)=O)n1` belongs 70.5 to 71.5 °C; to `CCC(O)CN1CCC(C)C(c2ccc(Cl)cc2)=N1` (configuration not stated), 90.5 to 91.5 °C.
To `O=C(O)CCNc1ccc(-c2ccc3nnn(Cc4ccc5ncccc5c4)c3n2)cc1F` belongs 132 to 135 °C; to `COc1ccc(-c2nc(-c3cccn3CC(=O)OCCC(C)C)sc2-c2ccc(OC)cc2)cc1`, 98.5 to 102 °C; to `Cn1ccnc1-c1ccc(/C=C/c2ccccc2F)cc1`, 60 to 61 °C.
To `Clc1ccc2c(NCCCN3CCCCC3)ccnc2c1` belongs 113 to 116 °C; to `CCOC(=O)c1c2ccc(Cl)cc2c(-c2ccccc2)n1CCCN(C)c1ccccc1`, 108 to 110 °C.
`O=C(c1ccncc1)N1CCC(=C2c3ccccc3CCn3ccnc32)CC1` registered a melting point of 207 to 209 °C.
To `CC1Cc2ccc(Br)cc2C(c2ccc([N+](=O)[O-])cc2)=NN1` (configuration not stated) belongs 125 to 130 °C; to `O=C1NC2CCCCN2C12CCNCC2` (configuration not stated), 193 °C; to `O=C1NC(=O)C(c2ccc(N=Cc3ccc(Cl)c(Cl)c3)cc2)S1` (configuration not stated), 216 to 218 °C.
To `CC(C)N1Cc2ccccc2N(CCN2CCC(c3c[nH]c4cc(F)ccc34)C2)S1(=O)=O` (configuration not stated) belongs 50.8 to 54.4 °C.
To `CCOC(CBr)(OCC)c1ccc(OC)cc1` belongs 55 to 56 °C; to `Cc1ccc(S(=O)(=O)N2[C@H](CCCC(=O)O)CC[C@@H]2c2ccc(F)cc2)cc1` (racemic), 87 °C; to `NC(=O)c1nc(-c2cccc(C3=Nc4ccc(-n5cccc5)cc4NC(=O)C3)c2)cs1`, 267 to 269 °C.
In turn, `C=C(C)CN1C(=O)c2cscc2Nc2ccccc21` registered a melting point of 161 to 163 °C.
To `CS(=O)(=O)Nc1cc2occc(=O)c2cc1Oc1ccc(F)cc1F` belongs 182 to 183 °C.
To `COc1ccc2c(c1O)C(=O)CC(c1ccc(F)cc1)=N2` belongs 60 to 62 °C; to `CN1CCCC[C@@H]1Cc1c(-c2ccccc2)[nH]c2ccccc12`, 135 °C; to `CCNC(=O)c1ccc(-n2nnc(C(=O)NC3CC3)c2CO)c(O)c1`, 185 °C.
Compound `Clc1ccc(C2(c3ccc4noc(-c5ccccc5)c4c3)OCCO2)cc1` registered a melting point of 143 °C.
To `Cc1c(-c2ccccc2)oc2c(C(=O)NCCCN3CCN(c4ccccc4OC(F)(F)F)CC3)cccc2c1=O` belongs 103 to 112 °C.
To `C=C1CC2(CN3CCC2CC3)SC1C` (configuration not stated) belongs 164 to 168 °C; to `CC(C)COC(=O)C(=O)c1csc(N)n1`, 105 to 108 °C; to `CCn1c(COCc2ccccc2)nc(C(C)C)c1Sc1cccc([N+](=O)[O-])c1`, 121 to 123 °C.
Regarding `COc1cc2c(cc1Cl)CC(C)=NN=C2c1ccc(N)cc1`, the melting point fell in the range of 198 to 200 °C.
To `C=CCc1cc(C(=O)c2ccc(Cl)c(S(=O)(=O)N=CN(C)C)c2)c(Cl)c(Cl)c1O` belongs 190 to 193 °C.
To `COc1ccc(C2Sc3ccccc3N(CC(N)=O)C(=O)C2NC(=O)c2ccc3ccccc3c2)cc1` (configuration not stated) belongs 243 to 245 °C; to `O=C(O)C1Cc2cc3c(-c4ccc(F)cc4)noc3c(Cl)c2O1` (configuration not stated), 225 to 226 °C.
To `CCOCc1nc2c(N)nc(C)cc2n1CCCCNC(=O)N1CCOCC1` belongs 156 to 160 °C.
`CNC(=O)N(c1ccccc1)c1ncc(C)n1-c1ccccc1` came in with a melting point of 147 °C.
To `Cn1nc(-c2ccc(F)cc2)c(-c2ccncc2)c1CC(=O)Cc1ccccc1` belongs 148 to 151 °C; to `Cc1c(C(=O)O)oc2ccc(Cc3cccnc3)cc12`, 223 to 225 °C.
`O=c1c(CCCc2ccco2)cc2cccnc2n1-c1cccc([N+](=O)[O-])c1` showed a melting point of 166 to 167 °C.
To `CC1(C(=O)NCCc2cccs2)CCCCC1` belongs 79 to 80 °C; to `COC(=O)/C=C(\C)CSc1nc(N)cc(Cl)n1`, 134 to 136 °C.
To `CC(=O)Nc1ccc(SCCN2CC=C(c3ccc(F)cc3)CC2)cc1` belongs 150 to 152 °C.
To `C=CCOC(=O)OCN1C(=O)C(c2cn(C)c3ccccc23)=C(c2cn(C)c3cc([N+](=O)[O-])ccc23)C1=O` belongs 191 to 194 °C; to `COc1ccc(-c2ccc(C(=O)Nc3ccc4cc(CN5CCCC5)cnc4c3)c(F)c2)cc1`, 174 °C.
Turning to `O=c1c(CCCc2ccncc2)cc2cccnc2n1-c1ccc(Cl)c([N+](=O)[O-])c1`, the melting point lay in the range of 136 to 137 °C.
To `COC(=O)c1c(Cc2ccc(S(=O)(=O)N3CCN(C)CC3)cc2)c(=O)c2ccc(Cl)cc2n1-c1ccccc1` belongs 223 to 227 °C.
For the compound `COc1c(C)cnc(CS(=O)c2nc3ccccc3n2CCl)c1C` (configuration not stated), the melting point fell in the range of 140 to 141 °C.
`CSc1nc(NCCCn2ccnc2)c(C#N)c(N2CCc3ccccc3CC2)n1` registered a melting point of 131 to 134 °C.
To `COc1cc(N)cnc1Cl` belongs 93 to 94 °C; to `CC1=CC(C)(C)c2ccc(Oc3ccc([N+](=O)[O-])cc3)cc2O1`, 80 °C.
To `N#Cc1cccc(Nc2nc(N)c(C(=O)c3ccccc3C#N)s2)c1` belongs 235 to 236 °C.
To `CC1(C(=O)c2c[nH]c3ncc(-c4cccc(N5CCN(C(=O)CC#N)CC5)c4)nc23)CCCCC1` belongs 214 to 216 °C.
`COc1ccc(OC(C(=O)N(C)C)C2(O)CCCCC2)cc1` (configuration not stated): the melting point was 98 to 99 °C.
